From patent publication US20030148337A1, “ARL-2 for birth control” (Schering AG, priority 2001, published 2003)

Tests used:
[1] = target: T1, human ARL-2 protein (Homo sapiens, UniProt C9JRZ8); assay: Standard ARL-2 enzyme assay (NADPH A340 decrease); assay type: biochemical; details: sodium-phosphate buffer pH 6.3, 0.2 mmol NADPH, 28° C.
T1 construct: For the expression of the ARL-2 protein, the coding area was amplified by means of the polymerase chain reaction; His-tag; made in house; host or cells: E. coli (pQE30) or insect cells (baculovirus pBlueBac4.5/V5-His-TOPO)
T1 sequence (C9JRZ8 whole entry): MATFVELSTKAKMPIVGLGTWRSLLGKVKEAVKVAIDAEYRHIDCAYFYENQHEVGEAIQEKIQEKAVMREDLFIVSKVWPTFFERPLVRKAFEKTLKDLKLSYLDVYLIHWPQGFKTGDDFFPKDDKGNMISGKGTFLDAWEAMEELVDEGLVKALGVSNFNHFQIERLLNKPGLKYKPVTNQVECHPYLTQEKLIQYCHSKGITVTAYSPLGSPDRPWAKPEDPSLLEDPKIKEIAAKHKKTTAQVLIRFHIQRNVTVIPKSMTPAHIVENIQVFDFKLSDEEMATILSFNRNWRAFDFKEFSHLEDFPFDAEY
Excerpt: For the expression of the ARL-2 protein, the coding area was amplified by means of the polymerase chain reaction (for reaction conditions, see Example 2) (primer for the N-terminal area: 5′ ATGGCCACGTTTGTGGAGCTC 3′; primer for the C-terminal area: 5′ ATATTCTGCATCGAAGGGAAA 3′), and inserted in the baculovirus expression vector pBlueBac4.5/V5-His-TOPO (Invitrogen) or the eukaryotic expression vector pcDNA3.1/V5/His-TOPO (Invitrogen). For the expression of the ARL-2 protein in E. coli, the coding area was amplified by means of a polymerase chain reaction (for reaction conditions, see Example 2) (primer for the N-terminal area: 5′ CGGGATCCGCCACGTTTGTGGAGCTC 3′; primer for the C-terminal area: 5′ CCCAAGCTTTCAATATTCTGCATCGAAGGGAAA 3′) and inserted in the procaryotic expression vector pQE30 (Quiagen). To simplify detection and purification, a fusion with an His-tag was carried out. […]
A standard ARL-2 enzyme assay was performed as follows: The standard enzyme reaction batch contained 135 mmol of sodium-phosphate buffer (pH 6.3), 0.2 mmol of NADPH and measured substrate and enzyme concentrations. The enzyme reaction was carried out at 28° C., and the substrate conversion was determined by spectrometry via the reduction of A340 of the NADPH. […] Controls without substrate and without enzyme were measured with respect to the standard. […]

[2] = tested on: adrenocorticotrophic carcinoma cell line Y1; assay: Test system for apoptosis-inducing substances, annexin-V staining in Y1 cells; assay type: cell-based, mouse; details: concentration of 10 μM; 12 hours incubation
Protocol: In this test system, substances can be examined with respect to their apoptosis-inducing action. The adrenocorticotrophic carcinoma cell line Y1 was used as a cell system. Cell cultures of this mouse cell line were treated for 12 hours with different substances before the rate of apoptosis in the cells was determined. […] Y1 cells/ml were resuspended in DME/F12 (+10% FCS) and treated with the substances to be tested. After 12 hours of incubation time, the apoptosis rate was determined in the Y1 cells using annexin-V-alexa 468 staining (Roche) in combination with DNA staining (Hoechst-33258, Molecular Probes) according to manufacturer's information.

[3] = tested on: endothelial cell cultures; details: Herbst et al., 1997; cited from earlier work
[4] = tested on: neuronal cell cultures; details: Kruman et al., 1997; Malecki et al., 2000; cited from earlier work

Row | SMILES | substrate of the aldo-keto-reductase ARL-2 [1] | induction of apoptosis in the Y1 cell line [2] | induction of apoptosis in endothelial cell cultures [3] | induction of apoptosis in neuronal cell cultures [4]
1 | CCCCCC(O)/C=C/C=O (centres unmarked) [4-hydroxynonenal] | preferred substrates | can induce apoptosis | induces apoptosis | induces apoptosis
2 | CC(C)CCC=O [isocaproaldehyde] | preferred substrates | – | – | –
